Laboratory results: the supplement of paper PMC10307832

Key:
Assay in all cases: relative viability (nuclei count vs DMSO), 5 days (fraction); higher = more cells survive
XMD13-2 = compound: C1CC1C(=O)NC2=NNC3=C2C=CC(=C3)C4=CC(=CC=C4)C(=O)NC5CC5 [XMD13-2]
Outline: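 In 1536-well plates, lung cancer cell lines rested overnight at 37 °C before five library-drug doses (not always all listed), √10 apart, were pinned onto vehicle-anchored plates. Nuclei were counted with MetaXpress from 4× Hoechst images taken after 5 days without medium change. Viability compares treated-well with vehicle-well nuclei as a median over plates, and plates needed control CV below 25% plus at least one doubling to pass.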

ALW-II-49-7 + Pictilisib = compound: Cc1ccc(C(=O)Nc2cccc(C(F)(F)F)c2)cc1Nc1cncc(C(N)=O)c1 [ALW-II-49-7] + CS(=O)(=O)N1CCN(Cc2cc3nc(-c4cccc5[nH]ncc45)nc(N4CCOCC4)c3s2)CC1 [Pictilisib] (partner 1 µM)
Outline: (§1)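 Five library-drug doses in √10 steps were combined with a fixed anchor-drug dose, or a single drug was given alone, by pin tool to lung cancer cell lines in 1536-well plates the day after seeding. Nuclei were stained and counted after 5 days. Relative viability is the nuclei count in treated wells over that in vehicle wells, taken as the median of duplicate plates.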

ALW-II-49-7 + Linsitinib = compound: Cc1ccc(C(=O)Nc2cccc(C(F)(F)F)c2)cc1Nc1cncc(C(N)=O)c1 [ALW-II-49-7] + C[C@]1(O)C[C@@H](c2nc(-c3ccc4ccc(-c5ccccc5)nc4c3)c3c(N)nccn32)C1 [Linsitinib] (partner 1 µM)
Outline: as §1

Dasatinib + AZD7762 = compound: Cc1nc(Nc2ncc(C(=O)Nc3c(C)cccc3Cl)s2)cc(N2CCN(CCO)CC2)n1 [Dasatinib] + NC(=O)Nc1cc(-c2cccc(F)c2)sc1C(=O)N[C@H]1CCCNC1 [AZD7762] (partner 0.2 µM)
Outline: as §1

| Cell Line | relative viability (XMD13-2; 0.05 µM) | relative viability (XMD13-2; 0.1581 µM) | relative viability (XMD13-2; 0.5 µM) | relative viability (XMD13-2; 1.581 µM) | relative viability (XMD13-2; 5 µM) | relative viability (ALW-II-49-7 + Pictilisib; first compound 0.08 µM) | relative viability (ALW-II-49-7 + Pictilisib; first compound 0.253 µM) | relative viability (ALW-II-49-7 + Pictilisib; first compound 0.8 µM) | relative viability (ALW-II-49-7 + Pictilisib; first compound 2.53 µM) | relative viability (ALW-II-49-7 + Pictilisib; first compound 8 µM) | relative viability (ALW-II-49-7 + Linsitinib; first compound 0.08 µM) | relative viability (ALW-II-49-7 + Linsitinib; first compound 0.253 µM) | relative viability (ALW-II-49-7 + Linsitinib; first compound 0.8 µM) | relative viability (ALW-II-49-7 + Linsitinib; first compound 2.53 µM) | relative viability (ALW-II-49-7 + Linsitinib; first compound 8 µM) | relative viability (Dasatinib + AZD7762; first compound 0.005 µM) | relative viability (Dasatinib + AZD7762; first compound 0.01581 µM) | relative viability (Dasatinib + AZD7762; first compound 0.05 µM) | relative viability (Dasatinib + AZD7762; first compound 0.1581 µM) | relative viability (Dasatinib + AZD7762; first compound 0.5 µM) |
| --- | --- | --- | --- | --- | --- | --- | --- | --- | --- | --- | --- | --- | --- | --- | --- | --- | --- | --- | --- | --- |
| NCI-H1944 | 1.11 | 0.958 | 1.06 | 1.18 | 0.977 | 0.314 | 0.371 | 0.328 | 0.364 | 0.324 | 1.18 | 1.26 | 1.3 | 1.29 | 1.2 | 0.41 | 0.388 | 0.294 | 0.21 | 0.187 |
| HCC-78 | 1.06 | 0.934 | 0.981 | 0.908 | 0.962 | 0.192 | 0.188 | 0.203 | 0.268 | 0.192 | 0.485 | 0.473 | 0.609 | 0.5 | 0.487 | 0.668 | 0.618 | 0.472 | 0.372 | 0.226 |
| PC-3 [JPC-3] | 1.06 | 1.05 | 1.06 | 1.02 | 1.17 | 0.657 | 0.799 | 0.745 | 0.711 | 0.616 | 1.01 | 0.914 | 0.935 | 0.995 | 0.952 | 0.98 | 1.04 | 0.755 | 0.528 | 0.427 |
| LCLC-103H | 1.09 | 0.997 | 0.969 | 0.987 | 1.05 | 0.544 | 0.859 | 0.692 | 0.67 | 0.546 | 0.994 | 1.15 | 1.16 | 1.15 | 1.05 | 0.695 | 0.666 | 0.628 | 0.523 | 0.331 |
| EKVX | 1.08 | 0.915 | 0.969 | 0.923 | 1.07 | 0.42 | 0.475 | 0.438 | 0.398 | 0.499 | 0.972 | 0.91 | 1.05 | 0.699 | 0.815 | 0.684 | 0.663 | 0.515 | 0.221 | 0.172 |
| NCI-H460 | 1.06 | 1.01 | 1.06 | 1.01 | 0.982 | 0.443 | 0.337 | 0.357 | 0.431 | 0.4 | 0.464 | 0.667 | 0.766 | 0.566 | 0.566 | 0.523 | 0.546 | 0.542 | 0.472 | 0.328 |
| NCI-H727 | 1.06 | 0.892 | 0.973 | 0.947 | 1.04 | 0.511 | 0.415 | 0.267 | 0.432 | 0.292 | 0.303 | 0.331 | 0.316 | 0.283 | 0.37 | 0.547 | 0.587 | 0.595 | 0.375 | 0.35 |
| NCI-H838 | 1.11 | 0.962 | 1.01 | 0.998 | 1.07 | 0.342 | 0.464 | 0.432 | 0.46 | 0.393 | 1.06 | 1.08 | 1.06 | 1.14 | 1.15 | 0.868 | 0.786 | 0.811 | 0.685 | 0.669 |
| NCI-H1792 | 1.09 | 0.907 | 0.925 | 0.808 | 1.12 | 0.232 | 0.21 | 0.215 | 0.183 | 0.258 | 0.402 | 0.338 | 0.421 | 0.321 | 0.371 | 0.62 | 0.532 | 0.489 | 0.19 | 0.0904 |
| H3255 | 1.18 | 0.949 | 0.95 | 0.892 | 0.895 | 0.505 | 0.43 | 0.48 | 0.335 | 0.418 | 0.832 | 0.892 | 0.94 | 0.884 | 0.9 | 0.899 | 0.856 | 0.832 | 0.686 | 0.372 |
| EPLC-272H | 1.18 | 0.882 | 1.16 | 0.738 | 0.646 | 0.258 | 0.359 | 0.328 | 0.37 | 0.29 | 0.954 | 0.922 | 1.15 | 1.26 | 1.18 | 0.222 | 0.245 | 0.173 | 0.125 | 0.147 |
| NCI-H647 | 1.12 | 1.05 | 1.06 | 1.03 | 0.747 | 0.489 | 0.507 | – | 0.469 | 0.499 | 1.1 | 1.35 | 1.03 | 1.04 | 1.05 | 0.468 | 0.399 | 0.141 | 0.114 | 0.155 |
| LXF-289 | 1.07 | 1.02 | 1.04 | 1.07 | 1.05 | 0.711 | 0.778 | 0.8 | 0.773 | 0.746 | 0.935 | 0.958 | 1.04 | 1.1 | 1.09 | 1.14 | 1.12 | 1.09 | 0.371 | 0.184 |
| NCI-H1755 | 1.07 | 0.997 | 0.994 | 0.985 | 1.04 | 0.377 | 0.531 | 0.421 | 0.352 | 0.307 | 1.05 | 1.14 | 1.01 | 0.978 | 0.855 | 0.424 | 0.33 | 0.296 | 0.25 | 0.215 |
| HCC-15 | 1.11 | 0.931 | 1.01 | 0.98 | 0.904 | 0.849 | 0.791 | 0.705 | 0.805 | 0.741 | 0.963 | 0.931 | 0.973 | 0.971 | 0.947 | 1.37 | 1.12 | 1.07 | 0.897 | 0.585 |
| EMC-BAC-2 | 1.13 | 0.896 | 1.02 | 0.616 | 0.79 | 0.507 | 0.59 | 0.567 | 0.556 | 0.46 | 0.811 | 0.814 | 0.894 | 0.836 | 0.747 | 1.05 | 1.03 | 0.776 | 0.591 | 0.391 |
